pIC50: −log10 of the molar value. Entries after “also recorded” stand apart in the source; their conditions may differ.
Assays:
Assay type in all cases: cell-based
MDA-MB-231 cells = test: MTT anti-proliferative assay, MDA-MB-231; settings: for pIC50: Homo sapiens, MDA-MB-231, read-out: IC50 MDA-MB-231; for selectivity between cell lines (in words): MDA-MB-231 versus MCF-7
MCF-7 cells = test: MTT anti-proliferative assay, MCF-7; settings: Homo sapiens, MCF7, read-out: IC50 MCF-7
HEK-293 cells = test: Cytotoxicity against non-tumorigenic HEK-293 cells; settings: for pIC50: Homo sapiens, HEK293, read-out: IC50 value in HEK293 cells

SMILES | pIC50 (MDA-MB-231 cells) | pIC50 (MCF-7 cells) | selectivity between cell lines (in words) (MDA-MB-231 cells) | cytotoxicity against HEK-293 cells (in words) (HEK-293 cells) | pIC50 (HEK-293 cells)
COc1ccc(/C(=C(/CCn2cc(CN3C(=O)C(=O)c4cc(Br)cc(Br)c43)nn2)c2ccccc2)c2ccccc2)cc1 [12c] | 4.83 | 4.88 |  | moderately cytotoxic | 4.67
CC1=CC(=O)c2c(O)cccc2C1=O [Plumbagin, reference compound] | 5.36 | 5.46 |  |  | 
O=C1C(=O)N(Cc2cn(CC/C(=C(\c3ccccc3)c3ccc(OCCO)cc3)c3ccccc3)nn2)c2c(Br)cc(Br)cc21 [14e] | 4.72 | 4.50 | selective for the estrogen-independent MDA-MB-231 cells; also recorded: more selective towards the ER-cells | non-cytotoxic | < 4.00
COc1ccc(/C(=C(/CCn2cc(CN3C(=O)C4(OCCO4)c4cc(Cl)ccc43)nn2)c2ccccc2)c2ccccc2)cc1 [13a] | 4.69 | 4.68 |  | moderately cytotoxic | 4.36
COc1ccc(/C(=C(/CCn2cc(CN3C(=O)C(=O)c4cc(Br)ccc43)nn2)c2ccccc2)c2ccccc2)cc1 [12b] | 4.12 | < 4.00 | selective against MDA-MB-231 cells |  | 
OCCOc1ccc(/C(=C(/CCCl)c2ccccc2)c2ccccc2)cc1 [OSP, Ospemifene, reference compound] | < 4.00 | 4.26 |  |  | 

Further lines, with some results ahead:

pIC50 (MDA-MB-231 cells) | pIC50 (MCF-7 cells) | SMILES | selectivity between cell lines (in words) (MDA-MB-231 cells) | cytotoxicity against HEK-293 cells (in words) (HEK-293 cells) | pIC50 (HEK-293 cells)
4.74 | 4.48 | O=C1C(=O)N(Cc2cn(CC/C(=C(\c3ccccc3)c3ccc(OCCO)cc3)c3ccccc3)nn2)c2ccc(Cl)cc21 [14b] | selective for the estrogen-independent MDA-MB-231 cells |  | 
< 4.00 | < 4.00 | O=C1N(Cc2cn(CC/C(=C(\c3ccccc3)c3ccc(OCCO)cc3)c3ccccc3)nn2)c2ccc(Br)cc2C12OCCO2 [15d] |  |  | 
< 4.00 | < 4.00 | O=C1N(Cc2cn(CC/C(=C(\c3ccccc3)c3ccc(OCCO)cc3)c3ccccc3)nn2)c2ccc(F)cc2C12OCCO2 [15c] |  |  | 
< 4.00 | < 4.00 | O=C1C(=O)N(Cc2cn(CC/C(=C(\c3ccccc3)c3ccc(OCCO)cc3)c3ccccc3)nn2)c2ccccc21 [14a] |  |  | 
< 4.00 | < 4.00 | O=C1N(Cc2cn(CC/C(=C(\c3ccccc3)c3ccc(OCCO)cc3)c3ccccc3)nn2)c2ccc(Cl)cc2C12OCCO2 [15b] |  |  | 
< 4.00 | < 4.00 | O=C1C(=O)N(Cc2cn(CC/C(=C(\c3ccccc3)c3ccc(OCCO)cc3)c3ccccc3)nn2)c2ccc(Br)cc21 [14d] |  |  | 
4.15 | 4.15 | O=C1C(=O)N(Cc2cn(CC/C(=C(\c3ccccc3)c3ccc(OCCO)cc3)c3ccccc3)nn2)c2ccc(F)cc21 [14c] |  |  | 

From article PMC9076587 (RSC Advances, 2019)
